From patent US5932742A, “Arylsulfonylimidazolone derivatives as an antitumor agent” (priority 1996, dated 1999)
In brackets after ≈: the same amount, converted by molar mass. Structures can show the parent of a compound that is named as a salt.

What was measured:
Type in all cases: cell-based
[1] = system: KB (ATCC CCL 17): human epidermoid carcinoma; test: In vitro antitumor activity, MTT assay, KB; conditions: Homo sapiens; Table 1; MTT, 48 hrs; read-out: IC50 (KB)
Procedure: (§1) In vitro antitumor activity against human tumor cell lines
(§2) In vitro antitumor activity of the compounds according to the present invention was determined by MTT assay method against the following human tumor cell lines:
KB (ATCC CCL 17): human epidermoid carcinoma
(§3) In this test, the known antineoplastic compounds, Doxorubicin and Sulofenur, were used as the comparative agents.
(§4) Each of the tumor cells was cultured in RPMI 1640 media containing 10% fetal bovine serum, 100 IU/ml penicillin and 100 μg/ml streptomycin, and then periodically subcultured once or twice per week in trypsin-EDTA solution containing 0.05% trypsin and 0.53mM EDTA.4Na. The human tumor cell line thus obtained (10,000cells/100 μl) was plated on 96-well microplate and then cultured for 24 hrs at 37° C. in a 5% CO2 incubator. Test compound was dissolved in DMSO, sterilized with 0.22 μm PVDF filter, and then serially 5-fold diluted from 40 μg/ml to 0.00256μg/ml. 100 μl of the sample solution thus prepared and RPMI 1640 medium only (control group) were added to 96-well microplate containing the human tumor cell, respectively. The final concentration of the test compound was in the range from 20 μg/ml to 0.00128 μg/ml and the concentration of DMSO was below 0.5%. The cells were cultured for 48 hrs at 37° C. in a 5% CO2 incubator. MTT(3-(4,5-Dimethylthiazole-2-yl)-e,5-diphenyltetrazoliumbromide) was dissolved in physiological saline in a concentration of 2 mg/ml and the resulting solution was filtered through 0.22 μm PTFE filter. 25 μl of MTT solution thus prepared was added to each well of 96-well microplate and incubated for additional 4 hrs at 37° C. in a 5% CO2 incubator. Then, the content of microplate was centrifuged at 1000 rpm for 10 min, and supernatant was removed by flicking. The formazan formed from MTT by mitochondrial succinate dehydrogenase was dissolved in 100 μl of DMSO. The absorbance of each well was measured at 540nm by micro ELISA reader and the cytotoxicity was calculated by dividing the absorbance of test group by the absorbance of control group. After the calculated cytotoxicity (%) was plotted, the concentration of 50% tumor growth inhibition concentration (IC50) was estimated by Linear-Regression method.

[2] = system: Colo205 (ATCC CCL 222): human colon adenocarcinoma; test: In vitro antitumor activity, MTT assay, Colo205; conditions: Homo sapiens, COLO 205, Table 1, 48 hrs, read-out: IC50 (Colo205)
Procedure: as §1, §2
Colo205 (ATCC CCL 222): human colon adenocarcinoma
as §3, §4

[3] = system: A549 (ATCC CCL 185): human lung carcinoma; test: In vitro antitumor activity, MTT assay, A549; conditions: Homo sapiens, A549, 48 h, Table 1
Procedure: as §1, §2
A549 (ATCC CCL 185): human lung carcinoma
as §3, §4

[4] = system: SK-OV-3 (ATCC HTB 77): human ovarian adenocarcinoma; test: In vitro antitumor activity, MTT assay, SK-OV-3; conditions: Homo sapiens, SK-OV-3, Table 1, 48 hrs
Procedure: as §1, §2
SK-OV-3 (ATCC HTB 77): human ovarian adenocarcinoma
as §3, §4

SMILES	IC50 [1]	IC50 [2]	IC50 [3]	IC50 [4]
CCOC(=O)N1CCc2cc(S(=O)(=O)n3cc(-c4ccccc4)[nH]c3=O)ccc21 [Example 1, 4-phenyl-1-(N-ethoxycarbonylindoline-5-sulfonyl)-2-imidazolone]	0.017 µg/mL (≈ 0.0411 µM)	0.906 µg/mL (≈ 2.19 µM)	0.374 µg/mL (≈ 0.905 µM)	10.1 µg/mL (≈ 24.3 µM)
CCNC(=O)N1CCc2cc(S(=O)(=O)n3cc(-c4ccccc4)[nH]c3=O)ccc21 [Example 2, 4-phenyl-1-(N-ethylcarbamoylindoline-5-sulfonyl)-2-imidazolone]	16.7 µg/mL (≈ 40.4 µM)		0.325 µg/mL (≈ 0.788 µM)	0.537 µg/mL (≈ 1.3 µM)
CCNC(=O)N1c2ccc(S(=O)(=O)n3cc(-c4ccccc4)[nH]c3=O)cc2CC1C (centres unmarked) [Example 3, 4-phenyl-1-(N-ethylcarbamoyl-2-methylindoline-5-sulfonyl)-2-imidazolone]	0.006 µg/mL (≈ 0.0141 µM)	0.265 µg/mL (≈ 0.621 µM)	0.111 µg/mL (≈ 0.26 µM)	0.509 µg/mL (≈ 1.19 µM)
CCCNC(=O)N1c2ccc(S(=O)(=O)n3cc(-c4ccccc4)[nH]c3=O)cc2CC1C (centres unmarked) [Example 5, 4-phenyl-1-(N-propylcarbamoyl-2-methylindoline-5-sulfonyl)-2-imidazolone]	0.105 µg/mL (≈ 0.238 µM)	0.519 µg/mL (≈ 1.18 µM)	0.09 µg/mL (≈ 0.204 µM)	0.146 µg/mL (≈ 0.331 µM)
CC(C)NC(=O)N1c2ccc(S(=O)(=O)n3cc(-c4ccccc4)[nH]c3=O)cc2CC1C (centres unmarked) [Example 7, 4-phenyl-1-(N-isopropylcarbamoyl-2-methylindoline-5-sulfonyl)-2-imidazolone]	0.162 µg/mL (≈ 0.368 µM)	0.102 µg/mL (≈ 0.232 µM)	0.105 µg/mL (≈ 0.238 µM)	1.07 µg/mL (≈ 2.43 µM)
CC(C)(C)NC(=O)N1CCc2cc(S(=O)(=O)n3cc(-c4ccccc4)[nH]c3=O)ccc21 [Example 8, 4-phenyl-1-(N-t-butylcarbamoylindoline-5-sulfonyl)-2-imidazolone]	0.002 µg/mL (≈ 0.00454 µM)	0.549 µg/mL (≈ 1.25 µM)	0.02 µg/mL (≈ 0.0454 µM)	2.67 µg/mL (≈ 6.07 µM)
O=C(c1ccc([N+](=O)[O-])cc1)N1CCc2cc(S(=O)(=O)n3cc(-c4ccccc4)[nH]c3=O)ccc21 [Example 9, 4-phenyl-1-[N-(4-nitrobenzoyl)indoline-5-sulfonyl]-2-imidazolone]	0.045 µg/mL (≈ 0.0917 µM)	0.651 µg/mL (≈ 1.33 µM)	0.528 µg/mL (≈ 1.08 µM)	0.106 µg/mL (≈ 0.216 µM)
Nc1ccc(C(=O)N2CCc3cc(S(=O)(=O)n4cc(-c5ccccc5)[nH]c4=O)ccc32)cc1 [Example 10, 4-phenyl-1-[N-(4-aminobenzoyl)indoline-5-sulfonyl]-2-imidazolone.HCl]	0.0001 µg/mL	0.334 µg/mL	0.23 µg/mL	0.529 µg/mL
CC1Cc2cc(S(=O)(=O)n3cc(-c4ccccc4)[nH]c3=O)ccc2N1C(=O)c1ccc([N+](=O)[O-])cc1 (centres unmarked) [Example 11, 4-phenyl-1-[N-(4-nitrobenzoyl)-2-methylindoline-5-sulfonyl]-2-imidazolone]	0.64 µg/mL (≈ 1.27 µM)	1.11 µg/mL (≈ 2.2 µM)	0.234 µg/mL (≈ 0.464 µM)	0.453 µg/mL (≈ 0.898 µM)
O=C(c1ccccc1)N1CCc2cc(S(=O)(=O)n3cc(-c4ccccc4)[nH]c3=O)ccc21 [Example 13, 4-phenyl-1-(N-benzoylindoline-5-sulfonyl)-2-imidazolone]	0.028 µg/mL (≈ 0.0629 µM)	0.644 µg/mL (≈ 1.45 µM)	0.199 µg/mL (≈ 0.447 µM)	1.22 µg/mL (≈ 2.73 µM)
CCOc1ccc(C(=O)N2CCc3cc(S(=O)(=O)n4cc(-c5ccccc5)[nH]c4=O)ccc32)cc1 [Example 14, 4-phenyl-1-[N-(4-ethoxybenzoyl)indoline-5-sulfonyl]-2-imidazolone]	0.107 µg/mL (≈ 0.219 µM)	1.28 µg/mL (≈ 2.62 µM)	0.445 µg/mL (≈ 0.909 µM)	0.926 µg/mL (≈ 1.89 µM)
O=C(c1cccnc1)N1CCc2cc(S(=O)(=O)n3cc(-c4ccccc4)[nH]c3=O)ccc21 [Example 15, 4-phenyl-1-(N-nicotinylindoline-5-sulfonyl)-2-imidazolone]	0.015 µg/mL (≈ 0.0336 µM)	0.382 µg/mL (≈ 0.856 µM)	0.112 µg/mL (≈ 0.251 µM)	0.446 µg/mL (≈ 0.999 µM)
